Experimental data as given in patent publication US11826351B2, “Compounds useful as kinase inhibitors” (Loxo Oncology, Inc., priority 2015, dated 2023).
Like-named read-outs stand apart in the source and are kept apart here.

Assays:
Recombinant EGFR = molecular target: T1, Recombinant EGFR (Homo sapiens, UniProt P00533); assay: EGFR binding affinity (LanthaScreen TR-FRET); settings: Kinase Tracer 199, 5 h incubation
T1 construct: purchased Invitrogen
Protocol: EGFR binding affinity was determined using a time-resolved fluorescence resonance energy transfer (TR-FRET) methodology. […] Recombinant EGFR and all LanthaScreen™ components were purchased from Invitrogen. Measurements were performed in a reaction volume of 30 μL using half-area 96-well assay plates. […] Binding affinity was determined for each compound by measuring TR-FRET signal at various concentrations of compound and plotting the relative fluorescence units against the inhibitor concentration to estimate the IC50 from log[Inhibitor] vs response using the Variable Slope model in Graphpad prism from Graphpad software (San Diego, Calif.).

[1] = molecular target: T2, Recombinant BTK^WT kinase (Homo sapiens, UniProt Q06187); assay: BTK WT binding affinity (LanthaScreen TR-FRET); settings: Kinase Tracer 236, 5 h incubation
T2 construct: purchased Invitrogen
T2 sequence (Q06187 whole entry): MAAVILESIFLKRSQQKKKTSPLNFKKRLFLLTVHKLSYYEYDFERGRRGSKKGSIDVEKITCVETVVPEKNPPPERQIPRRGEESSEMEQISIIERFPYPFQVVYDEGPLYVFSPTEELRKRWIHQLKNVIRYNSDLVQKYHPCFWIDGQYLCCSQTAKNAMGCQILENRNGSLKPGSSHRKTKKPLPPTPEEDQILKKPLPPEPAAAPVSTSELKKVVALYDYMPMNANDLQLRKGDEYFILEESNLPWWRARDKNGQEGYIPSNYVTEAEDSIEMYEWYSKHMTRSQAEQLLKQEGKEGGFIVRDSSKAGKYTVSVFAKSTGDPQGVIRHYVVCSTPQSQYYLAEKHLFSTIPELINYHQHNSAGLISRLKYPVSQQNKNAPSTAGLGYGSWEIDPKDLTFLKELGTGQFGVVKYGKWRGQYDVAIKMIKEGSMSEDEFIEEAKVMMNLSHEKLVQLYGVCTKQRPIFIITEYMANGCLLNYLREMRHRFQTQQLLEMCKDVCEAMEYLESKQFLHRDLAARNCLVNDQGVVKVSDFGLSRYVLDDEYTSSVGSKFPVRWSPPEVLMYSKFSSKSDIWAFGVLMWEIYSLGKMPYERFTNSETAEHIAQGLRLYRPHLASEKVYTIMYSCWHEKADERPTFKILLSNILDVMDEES
Protocol: BTK^WT binding affinity of each compound tested was determined using a time-resolved fluorescence resonance energy transfer (TR-FRET) methodology. 2.5 nM Recombinant BTK^WT kinase, varying concentrations of inhibitor, 2 nM LanthaScreen™ Eu anti-His Antibody and 15 nM Kinase Tracer 236 was incubated in 1× LanthaScreen™ Kinase Buffer A for 5 h. Recombinant BTK kinase and all LanthaScreen™ components were purchased from Invitrogen. Measurements were performed in a reaction volume of 30 μL using half-area 96-well assay plates. The TR-FRET signal was read on a plate reader with an excitation wavelength of 340 nm and detection wavelengths of 615 and 665 nm. Binding affinity was determined for each compound by measuring TR-FRET signal at various concentrations of compound and plotting the relative fluorescence units against the inhibitor concentration to estimate the IC50 from log[Inhibitor] vs response using the Variable Slope model in Graphpad prism from Graphpad software (San Diego, Calif.).

[2] = molecular target: T3, Recombinant BTK^C481S kinase (Homo sapiens, UniProt Q06187, C481S); assay: BTK C481S binding affinity (LanthaScreen TR-FRET); settings: Kinase Tracer 236, 5 h incubation
T3 construct: purchased SignalChem
T3 sequence (Q06187 whole entry C481S): as the sequence (Q06187 whole entry) above, with C481S counted along it
Protocol: BTK^C481S binding affinity of each compound tested was determined using a time-resolved fluorescence resonance energy transfer (TR-FRET) methodology. 5 nM Recombinant BTK^WT kinase, varying concentrations of inhibitor, 2 nM LanthaScreen™ Eu anti-His Antibody and 30 nM Kinase Tracer 236 was incubated in 1× LanthaScreen™ Kinase Buffer A for 5 h. Recombinant BTK^C481S kinase was purchased from SignalChem and all LanthaScreen™ components were purchased from Invitrogen. Measurements were performed in a reaction volume of 30 μL using half-area 96-well assay plates. The TR-FRET signal was read on a plate reader with an excitation wavelength of 340 nm and detection wavelengths of 615 and 665 nm. Binding affinity was determined for each compound by measuring TR-FRET signal at various concentrations of compound and plotting the relative fluorescence units against the inhibitor concentration to estimate the IC50 from log[Inhibitor] vs response using the Variable Slope model in Graphpad prism from Graphpad software (San Diego, Calif.).

[3] = system: OCI-Ly10 human DLBCL cells; assay: OCI-Ly10 anti-proliferative activity (Resazurin); assay type: cell-based; settings: OCI-Ly10 cells, 72 h compound treatment, Resazurin, read-out: Proliferation Assay OCI-Ly10-20% FBS
Protocol: Compounds were assayed for effects on the growth of OCI-Ly10 human DLBCL cells that are dependent on NFκB signalling. […] Cells were then plated at 7.5×10^3 cells per well in 96-well plates in varying concentrations of compound and incubated for 72 h at 37° C. An additional plate of cells to be used as the Day 0 read was seeded without compound addition, Resazurin was added to each well, incubated for 5 h and the fluorescence measured at 590 nm. After 72 h of compound treatment, Resazurin was added to each well of the compound treated plates, incubated for 5 h and the fluorescence measured at 590 nm. The IC50 was then calculated by subtracting the average Day 0 value from each well value from the treated plates, each treatment was then calculated as a percentage of the DMSO control and the percentages plotted against the inhibitor concentration to estimate the IC50 from log[Inhibitor] vs response using the Variable Slope model in Graphpad prism from Graphpad software (San Diego, Calif.).

T1 sequence (P00533 25-1210): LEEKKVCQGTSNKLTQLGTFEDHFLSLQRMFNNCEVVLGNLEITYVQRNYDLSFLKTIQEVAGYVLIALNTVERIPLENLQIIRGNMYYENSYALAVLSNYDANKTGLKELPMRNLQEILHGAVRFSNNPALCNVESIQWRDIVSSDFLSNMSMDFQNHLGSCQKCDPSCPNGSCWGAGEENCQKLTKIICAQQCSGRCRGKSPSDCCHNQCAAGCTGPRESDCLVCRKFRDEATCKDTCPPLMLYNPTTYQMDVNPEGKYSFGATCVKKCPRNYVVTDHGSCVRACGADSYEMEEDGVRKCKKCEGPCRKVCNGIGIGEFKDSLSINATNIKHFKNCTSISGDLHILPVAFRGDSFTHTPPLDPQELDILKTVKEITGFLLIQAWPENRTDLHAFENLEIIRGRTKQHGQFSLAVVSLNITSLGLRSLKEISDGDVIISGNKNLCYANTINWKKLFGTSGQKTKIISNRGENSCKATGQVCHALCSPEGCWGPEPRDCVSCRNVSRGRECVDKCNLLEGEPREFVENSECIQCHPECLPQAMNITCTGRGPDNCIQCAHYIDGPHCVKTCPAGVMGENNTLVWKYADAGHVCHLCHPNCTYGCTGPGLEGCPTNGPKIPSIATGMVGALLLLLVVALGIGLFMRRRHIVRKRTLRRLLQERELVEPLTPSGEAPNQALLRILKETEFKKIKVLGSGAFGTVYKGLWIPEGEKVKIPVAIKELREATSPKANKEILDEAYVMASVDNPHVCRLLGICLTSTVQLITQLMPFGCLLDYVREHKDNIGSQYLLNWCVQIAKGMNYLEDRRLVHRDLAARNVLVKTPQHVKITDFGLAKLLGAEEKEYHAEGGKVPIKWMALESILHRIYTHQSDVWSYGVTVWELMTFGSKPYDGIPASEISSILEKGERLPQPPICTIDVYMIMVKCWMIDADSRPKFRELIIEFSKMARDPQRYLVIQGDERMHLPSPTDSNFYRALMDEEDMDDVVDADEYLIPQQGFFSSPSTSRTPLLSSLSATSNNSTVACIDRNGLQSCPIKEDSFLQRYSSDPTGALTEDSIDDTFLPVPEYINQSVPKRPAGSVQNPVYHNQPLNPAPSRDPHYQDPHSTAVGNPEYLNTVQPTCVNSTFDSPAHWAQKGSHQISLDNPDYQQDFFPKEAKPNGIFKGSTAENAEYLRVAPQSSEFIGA

For `COc1ccccc1C(=O)NCc1ccc(-c2nn(C(C)(C)C)c(N)c2C(N)=O)cc1` [Example 3, 5-amino-1-tert-butyl-3-[4-[[(2-methoxybenzoyl)amino]methyl]phenyl]pyrazole-4-carboxamide], the IC50 (Recombinant EGFR) was 100 to 1000 nM, the IC50 [1] was under 10 nM and the IC50 [2] was under 10 nM. For the same molecule, the IC50 ([3]; Homo sapiens, OCI-Ly10, 72 h) was 10 to 100 nM.
`COc1ccccc1C(=O)NCc1ccc(-c2nn(C3C[C@@H]4C[C@@H]4C3)c(N)c2C(N)=O)cc1` (stereo partly drawn) [Example 4, 5-Amino-1-(3-bicyclo[3.1.0]hexanyl)-3-[4-[[(2-methoxybenzoyl)amino]methyl]phenyl]pyrazole-4-carboxamide] was tested, and the IC50 (Recombinant EGFR) was 100 to 1000 nM, the IC50 [1] was under 10 nM and the IC50 [2] was under 10 nM. It also gave an IC50 ([3]; Homo sapiens, OCI-Ly10, 72 h) of under 10 nM.
With `COc1ccccc1C(=O)NCc1ccc(-c2nn(C3CCC(C)C3)c(N)c2C(N)=O)cc1` (stereo not drawn) [Example 5, 5-Amino-3-[4-[[(2-methoxybenzoyl)amino]methyl]phenyl]-1-(3-methylcyclopentyl)pyrazole-4-carboxamide] the IC50 (Recombinant EGFR) was 100 to 1000 nM, the IC50 [1] was under 10 nM and the IC50 [2] was under 10 nM. For the same molecule, the IC50 ([3]; Homo sapiens, OCI-Ly10, 72 h) was 10 to 100 nM.
`COc1ccccc1C(=O)NCc1ccc(-c2nn(-c3ccc(C(F)(F)F)cn3)c(N)c2C(N)=O)cc1` [Example 6, 5-Amino-3-[4-[[(2-methoxybenzoyl)amino]methyl]phenyl]-1-[5-(trifluoromethyl)-2-pyridyl]pyrazole-4-carboxamide] was tested, and the IC50 (Recombinant EGFR) was over 10000 nM, the IC50 [1] was 10 to 100 nM and the IC50 [2] was under 10 nM. For the same molecule, the IC50 ([3]; Homo sapiens, OCI-Ly10, 72 h) was 100 to 1000 nM.
For `COCOCCn1nc(-c2ccc(CNC(=O)c3ccccc3OC)cc2)c(C(N)=O)c1N` [Example 7, 5-amino-3-[4-[[(2-methoxybenzoyl)amino]methyl]phenyl]-1-[2-(methoxymethoxy)ethyl]pyrazole-4-carboxamide], the IC50 (Recombinant EGFR) was over 10000 nM, the IC50 [1] was 100 to 1000 nM and the IC50 [2] was 10 to 100 nM. The IC50 ([3]; Homo sapiens, OCI-Ly10, 72 h) was 100 to 1000 nM.
`COc1ccccc1C(=O)NCc1ccc(-c2nn(CC3(C)COC3)c(N)c2C(N)=O)cc1` [Example 8, 5-amino-3-[4-[[(2-methoxybenzoyl)amino]methyl]phenyl]-1-[(3-methyloxetan-3-yl)methyl]pyrazole-4-carboxamide] showed an IC50 (Recombinant EGFR) of over 10000 nM, an IC50 [1] of 100 to 1000 nM and an IC50 [2] of 10 to 100 nM. The IC50 ([3]; Homo sapiens, OCI-Ly10, 72 h) was 100 to 1000 nM.
`COc1ccccc1C(=O)NCc1ccc(-c2nn(CCN3CCOCC3)c(N)c2C(N)=O)cc1` [Example 9, 5-Amino-3-[4-[[(2-methoxybenzoyl)amino]methyl]phenyl]-1-(2-morpholinoethyl)pyrazole-4-carboxamide] gave an IC50 (Recombinant EGFR) of 1000 to 10000 nM, an IC50 [1] of 10 to 100 nM and an IC50 [2] of 10 to 100 nM. The IC50 ([3]; Homo sapiens, OCI-Ly10, 72 h) was 100 to 1000 nM.
`COc1ccccc1C(=O)NCc1ccc(-c2nn(CC(=O)C(C)(C)C)c(N)c2C(N)=O)cc1` [Example 10, 5-Amino-1-(3,3-dimethyl-2-oxo-butyl)-3-[4-[[(2-methoxybenzoyl)amino]methyl]phenyl]pyrazole-4-carboxamide] gave an IC50 (Recombinant EGFR) of 1000 to 10000 nM, an IC50 [1] of 10 to 100 nM and an IC50 [2] of 10 to 100 nM. It also gave an IC50 ([3]; Homo sapiens, OCI-Ly10, 72 h) of 100 to 1000 nM.
Molecule `COc1ccccc1C(=O)NCc1ccc(-c2nn(CCC#N)c(N)c2C(N)=O)cc1` [Example 11, 5-Amino-1-(2-cyanoethyl)-3-[4-[[(2-methoxybenzoyl)amino]methyl]phenyl]pyrazole-4-carboxamide] has an IC50 (Recombinant EGFR) of 1000 to 10000 nM, an IC50 [1] of 10 to 100 nM and an IC50 [2] of 10 to 100 nM. For the same molecule, the IC50 ([3]; Homo sapiens, OCI-Ly10, 72 h) was 1000 to 10000 nM.
`COc1ccccc1C(=O)NCc1ccc(-c2nn(C3CCCC(=O)C3)c(N)c2C(N)=O)cc1` (stereo not drawn) [Example 12, 5-amino-3-[4-[[(2-methoxybenzoyl)amino]methyl]phenyl]-1-(3-oxocyclohexyl)pyrazole-4-carboxamide] showed an IC50 (Recombinant EGFR) of over 10000 nM, an IC50 [1] of 100 to 1000 nM and an IC50 [2] of 100 to 1000 nM. It also gave an IC50 ([3]; Homo sapiens, OCI-Ly10, 72 h) of 1000 to 10000 nM.
`COc1ccccc1C(=O)NCc1ccc(-c2nn(C3CCC(=O)C3)c(N)c2C(N)=O)cc1` (stereo not drawn) [Example 13, 5-Amino-3-[4-[[(2-methoxybenzoyl)amino]methyl]phenyl]-1-(3-oxocyclopentyl)pyrazole-4-carboxamide] was tested, and the IC50 (Recombinant EGFR) was 1000 to 10000 nM, the IC50 [1] was under 10 nM and the IC50 [2] was under 10 nM. The IC50 ([3]; Homo sapiens, OCI-Ly10, 72 h) was 100 to 1000 nM.
`COc1ccccc1C(=O)NCc1ccc(-c2nn(CC(O)C(C)(C)C)c(N)c2C(N)=O)cc1` (stereo not drawn) [Example 14, 5-Amino-1-(2-hydroxy-3,3-dimethyl-butyl)-3-[4-[[(2-methoxybenzoyl)amino]methyl]phenyl]pyrazole-4-carboxamide] gave an IC50 (Recombinant EGFR) of 1000 to 10000 nM, an IC50 [1] of 10 to 100 nM and an IC50 [2] of 10 to 100 nM. It also gave an IC50 ([3]; Homo sapiens, OCI-Ly10, 72 h) of 100 to 1000 nM.
Work on `COc1ccccc1C(=O)NCc1ccc(-c2nn(-c3ccc(F)cc3F)c(N)c2C(N)=O)cc1` [Example 15, 5-Amino-1-(2,4-difluorophenyl)-3-[4-[[(2-methoxybenzoyl)amino]methyl]phenyl]pyrazole-4-carboxamide] yielded an IC50 (Recombinant EGFR) of 1000 to 10000 nM, an IC50 [1] of under 10 nM and an IC50 [2] of under 10 nM. It also gave an IC50 ([3]; Homo sapiens, OCI-Ly10, 72 h) of 10 to 100 nM.
Work on `COc1ccccc1C(=O)NCc1ccc(-c2nn(-c3cccc(C(F)(F)F)c3)c(N)c2C(N)=O)cc1` [Example 16, 5-Amino-3-[4-[[(2-methoxybenzoyl)amino]methyl]phenyl]-1-[3-(trifluoromethyl)phenyl]pyrazole-4-carboxamide] yielded an IC50 (Recombinant EGFR) of 1000 to 10000 nM, an IC50 [1] of 10 to 100 nM and an IC50 [2] of under 10 nM. The IC50 ([3]; Homo sapiens, OCI-Ly10, 72 h) was 100 to 1000 nM.
`COc1ccccc1C(=O)NCc1ccc(-c2nn(CC3CCCCC3)c(N)c2C(N)=O)cc1` [Example 17, 5-amino-1-(cyclohexylmethyl)-3-[4-[[(2-methoxybenzoyl)amino]methyl]phenyl]pyrazole-4-carboxamide] showed an IC50 (Recombinant EGFR) of 100 to 1000 nM, an IC50 [1] of under 10 nM and an IC50 [2] of under 10 nM. For the same molecule, the IC50 ([3]; Homo sapiens, OCI-Ly10, 72 h) was 10 to 100 nM.
Work on `COc1ccccc1C(=O)NCc1ccc(-c2nn(C3CCCCC3)c(N)c2C(N)=O)cc1` [Example 18, 5-amino-1-cyclohexyl-3-[4-[[(2-methoxybenzoyl)amino]methyl]phenyl]pyrazole-4-carboxamide] yielded an IC50 (Recombinant EGFR) of 100 to 1000 nM, an IC50 [1] of under 10 nM and an IC50 [2] of under 10 nM. The IC50 ([3]; Homo sapiens, OCI-Ly10, 72 h) was under 10 nM and the IC50 [3] was 10 to 100 nM.
Work on `COc1ccccc1C(=O)NCc1ccc(-c2nn(C(C)C)c(N)c2C(N)=O)cc1` [Example 19, 5-amino-1-isopropyl-3-[4-[[(2-methoxybenzoyl)amino]methyl]phenyl]pyrazole-4-carboxamide] yielded an IC50 (Recombinant EGFR) of 100 to 1000 nM, an IC50 [1] of under 10 nM and an IC50 [2] of under 10 nM. It also gave an IC50 ([3]; Homo sapiens, OCI-Ly10, 72 h) of 10 to 100 nM.
`COc1ccccc1C(=O)NCc1ccc(-c2nn(CC(F)(F)F)c(N)c2C(N)=O)cc1` [Example 21, 5-Amino-3-[4-[[(2-methoxybenzoyl)amino]methyl]phenyl]-1-(2,2,2-trifluoroethyl)pyrazole-4-carboxamide] was tested, and the IC50 (Recombinant EGFR) was 100 to 1000 nM, the IC50 [1] was under 10 nM and the IC50 [2] was under 10 nM. It also gave an IC50 ([3]; Homo sapiens, OCI-Ly10, 72 h) of 100 to 1000 nM.
Molecule `COc1ccccc1C(=O)NCc1ccc(-c2nn(-c3ccccc3)c(N)c2C(N)=O)cc1` [Example 22, 5-Amino-3-[4-[[(2-methoxybenzoyl)amino]methyl]phenyl]-1-phenyl-pyrazole-4-carboxamide] has an IC50 (Recombinant EGFR) of 1000 to 10000 nM, an IC50 [1] of under 10 nM and an IC50 [2] of under 10 nM. For the same molecule, the IC50 ([3]; Homo sapiens, OCI-Ly10, 72 h) was 10 to 100 nM.
Work on `COc1ccccc1C(=O)NCc1ccc(-c2nn([C@@H]3CCc4ccccc43)c(N)c2C(N)=O)cc1` [Example 23, 5-Amino-1-[(1R)-indan-1-yl]-3-[4-[[(2-methoxybenzoyl)amino]methyl]phenyl]pyrazole-4-carboxamide] yielded an IC50 (Recombinant EGFR) of 100 to 1000 nM, an IC50 [1] of under 10 nM and an IC50 [2] of under 10 nM. The IC50 ([3]; Homo sapiens, OCI-Ly10, 72 h) was 10 to 100 nM.
